In the experiment the target is T1, afRio1 (Rio1 kinase) (Archaeoglobus fulgidus, UniProt O28471).
T1 construct: full-length
Nature of the experiment: thermal shift (Thermofluor), Tm […] to […] °C. The format is binding.

Here are results for one molecule from article PMC3358306 (PLoS ONE, 2012).

T1 sequence (O28471 whole entry): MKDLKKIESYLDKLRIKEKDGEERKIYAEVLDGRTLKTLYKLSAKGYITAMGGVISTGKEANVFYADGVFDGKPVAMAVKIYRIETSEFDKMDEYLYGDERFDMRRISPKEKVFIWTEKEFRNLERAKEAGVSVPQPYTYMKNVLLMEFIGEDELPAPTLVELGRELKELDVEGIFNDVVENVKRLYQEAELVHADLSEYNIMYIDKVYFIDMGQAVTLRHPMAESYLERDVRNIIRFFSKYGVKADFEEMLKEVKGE

Turning to `NC(=O)c1cn([C@@H]2O[C@H](CO)[C@@H](O)[C@H]2O)c2ncnc(N)c12` [sangivamycin], the “thermal shift (Thermofluor), Tm 76 to 82 °C” value was determined as 82 °C.
